Measurements taken from US20260183311A1, “COMPOUNDS DERIVED FROM STEROLS FOR THE TREATMENT OF A DISEASE ASSOCIATED WITH A MITOCHONDRIAL DEFICIT” (DENDROGENIX, priority 2022, published 2026).
Entries after “also recorded” stand apart in the source; their conditions may differ.

What was measured:
[1] = test system: mitochondrial fission gene drp1; test: Inhibition of mitochondrial fission on cochlear explants (qRT-PCR); assay type: cell-based, mice; details: 100 nM; 24 h; relative to untreated cochleae; FIG. 4
Experimental: A cochlear explant model was developed. To obtain cochleae, the organ of hearing, in culture, cochleae from 3-day-old mice were microdissected. These cochleae were then placed in DMEM medium with addition of glucose (0.5%), N1 (0.5%), insulin (0.25%) and penicillin (0.1%), for 24 h. 100 nM of the compound DX243 were then added to this culture medium for 24 h. The cochleae were then recovered and the RNA extracted therefrom, so as to be able to analyze the modulation of several genes following treatment with the compound DX243.

Neuro-2a cells [2] = test: Test of relative metabolic activity (MTT) on Neuro-2a cells under normal conditions; assay type: cell-based, mouse; details: physiological conditions; 24 h; two concentrations; FIG. 2A
Experimental: (§1) A test based on the metabolic activity of the neurons was performed to evaluate the effect of the compounds of formula (I) on this metabolic activity. This test is based on the use of the tetrazolium salt MTT (3-(4,5-dimethylthiazol-2-yl)-2,5-diphenyltetrazolium bromide). Tetrazolium is reduced by mitochondrial succinate dehydrogenase in active live cells to formazan, a purple-colored precipitate. The amount of precipitate formed is proportional to the metabolic activity present in the culture. Thus, spectroscopic assay of the optical density at 550 nm makes it possible to determine the relative amount of metabolic activity and consequently the mitochondrial activity. This test on cortical neuron cultures was performed with different compounds in reference to Table 2 (DX101, DX243, DX244, DX245, DX249, DX301, DX302 and DX401) used at the same concentration (100 nM).
The same test described in Example 1 was performed on Neuro-2a cells—a mouse neuroblastoma cell line. Under physiological conditions, once cultured and at about 50% confluence, Neuro-2a cells were placed in contact for 24 h with two concentrations of the compounds DX243 and DX245.

SHSY5y = test: Test of mitochondrial dynamics (Mitotracker labeling) on SHSY5Y cell line; assay type: cell-based, human; details: 24 h, different concentrations, FIG. 3
Experimental: (§2) A human neuroblastoma cell line (SHSY5y) and also a myoblast cell line (C2C12) were cultured in DMEM™ medium (Ref. 21068028 ThermoFisher Scientific). Once in culture, these two cell lines were treated for 24 h with different concentrations of the compound DX243. A series of images was taken, labeling with Mitotracker™ (Ref. M7512, ThermoFisher Scientific), which highlights and visualizes the mitochondria present in these cells, and enables quantification of their amount.

hippocampal neurons = test: Mitochondrial stress in hippocampal neurons treated with peptide Aβ 1-42; assay type: cell-based; details: 1 nM, FIG. 7
Experimental: The mitochondrial effects of compound DX243 were tested in a model of hippocampal neurons treated with peptide Aβ 1-42, this peptide inducing mitochondrial stress (represented by a reduction in mitochondrial surface area).

Neuro-2a cells [3] = test: MitoTracker study of mitochondria in Neuro-2a cells after ethanol intoxication; assay type: cell-based, mouse; details: after 24 h of ethanol intoxication (500 mm); FIG. 2C
dopaminergic neurons [4] = test: Mitochondrial dynamics (mitochondrial mass) in dopaminergic neurons treated with MPP+; assay type: cell-based, rat; details: MPP+ 48 h; different concentrations during MPP+ and 48 h after removal; FIG. 5
Experimental: (§3) The mitochondrial effects of compound DX243 were tested in a model of dopaminergic neurons treated with MPP+ (1-methyl-4-phenylpyridinium), a mitochondrial toxin that increases mitochondrial stress and reduces the number of mitochondria. MPP+ is known for its deleterious effects on mitochondria (increased mitochondrial stress measured by the amount of cytochrome C, reduced mitochondrial number measured by means of the Mitotracker test). Dopaminergic neurons were obtained from microdissection of the midbrain of rat embryos cultured with Neurobasal™ Medium (Ref. 21103049 ThermoFisher Scientific) supplemented with B27 supplement 50× (Ref. 17504044 ThermoFisher Scientific), penicillin/streptomycin, L-glutamine and also BDNF (brain-derived neurotrophic factor) and GDNF (glial cell-derived neurotrophic factor).
(§4) These neurons were cultured for 5 days and then treated for 48 h with MPP+. These neurons were also exposed to different concentrations of the compound DX243 during the 48 h of MPP+ treatment, and also 48 h after MPP+ removal.

Neuro-2a cells [5] = test: Test of metabolic activity (MTT) on Neuro-2a cells after ethanol (EtOH) intoxication; assay type: cell-based, mouse; details: for metabolic activity after EtOH intoxication relative to untreated cells (MTT): 24 h treatment with 100 nM, EtOH 200 mM and 500 mM, FIG. 2B
Experimental: as §1
The same test described in Example 1 was performed on Neuro-2a cells—a mouse neuroblastoma cell line. It was shown that 24 h of intoxication with ethanol (EtOH) at high concentration (500 mM) in this cell line reduced the metabolic activity of these cells (χ=P value <0.0001 relative to the control).

dopaminergic neurons [6] = test: Mitochondrial stress in dopaminergic neurons treated with MPP+; assay type: cell-based, rat; details: 10 nM; FIG. 6
Experimental: as §3, §4

C2C12 = test: Test of mitochondrial dynamics (Mitotracker labeling) on C2C12 cell line; assay type: cell-based; details: 24 h, different concentrations, FIG. 3
Experimental: as §2

SMILES | expression of drp1 mRNA (qRT-PCR) [1] | metabolic activity of Neuro-2a cells (MTT) (Neuro-2a cells [2]) | mitochondrial amount (mass), Mitotracker labeling (SHSY5y) | mitochondrial surface area (hippocampal neurons) | mitochondrial surface area (MitoTracker) (Neuro-2a cells [3]) | mitochondrial mass (dopaminergic neurons [4]) | metabolic activity after EtOH intoxication (MTT) (Neuro-2a cells [5]; 24 h EtOH 500 mM, 24 h treatment with 1 nM) | metabolic activity after EtOH intoxication relative to untreated cells (MTT) (Neuro-2a cells [5]) | mitochondrial stress engendered by MPP+ treatment (dopaminergic neurons [6]) | mitochondrial amount (mass), Mitotracker labeling (C2C12)
CC(C)CCC[C@@H](C)[C@H]1CC[C@H]2[C@@H]3C[C@@H](NCCCNCCCCN)[C@@]4(O)C[C@@H](O)CC[C@]4(C)[C@H]3CC[C@]12C [DX243, 5α-hydroxy-6β-[3-(4-aminobutylamino)propylamino]cholestan-3β-ol] | reduction in drp1 mRNA; also recorded: inhibition of expression | increase in the metabolic activity | increase in mitochondrial amount (mass) | restoring this decrease in mitochondrial surface area | increase in mitochondrial surface area | increasing and restoring mitochondrial mass | partially recovered | significantly greater metabolic activity | reduction in mitochondrial stress | increase in mitochondrial amount (mass)
CC(C)CCCC(C)[C@H]1CCC2C3C[C@@H](NCCCCNCCCN)[C@@]4(O)C[C@@H](O)CC[C@]4(C)C3CC[C@@]21C (stereo partly drawn) [DX245] |  | increase in the metabolic activity |  |  |  |  |  | significantly greater metabolic activity |  | 
